This is an account of results in US11691976B2, “Coelenterazine analogues” (PROMEGA CORPORATION, priority 2018, dated 2023).

Molecules are shown by their SMILES.

Chain of NANOLUC® Luciferase (Q9GV45 28-196 with tags or gaps with the stated changes limits assumed): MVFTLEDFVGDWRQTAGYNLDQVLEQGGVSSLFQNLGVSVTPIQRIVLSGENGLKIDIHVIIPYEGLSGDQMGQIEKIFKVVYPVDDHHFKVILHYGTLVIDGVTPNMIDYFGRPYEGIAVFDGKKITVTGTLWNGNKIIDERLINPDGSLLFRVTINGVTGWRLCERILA

In one series the target is NANOLUC® Luciferase (Oplophorus gracilirostris, UniProt Q9GV45, A31E/A60N/A81I/F95D/I117V/K70R/L54V/L99Q/M102K/N193R/P142E/Q151K/Q38R/Q45L/V71I/Y165I). As to the kind of experiment: Luminescence assay: substrate titration with purified NANOLUC Luciferase (RLU, signal half-life, Km). The following applies: 100 μM substrate; initial light output three minutes after substrate addition; relative to furimazine set to 1.0. Format: biochemical. The procedure:
Each compound to be screened was dissolved in DMSO (5 mM) and then further diluted to 100 μM in NANO-GEO® Luciferase Assay Buffer. A two-fold dilution series was prepared for each substrate by serially diluting 500 μl of the substrate solution with 500 μl of NANO-GLO® Luciferase Assay Buffer. Each diluted substrate titration was then combined in equal volumes with purified NANOLUC® Luciferase diluted into CO2 independent media+10% FBS. Initial light output for each substrate was measured in a GLOMAX®-Multi+ luminometer three minutes after substrate addition and then at five minute intervals as a means to determine signal half-life. Signal half-life was calculated using GraphPad Prism One Phase Decay regression and Km and Vmax were calculated using GraphPad Prism using Michaelis-Menten regression.
The synthesized coelenterazine analogues (compounds of formula (I) and (II)) were evaluated for their suitability as luciferase substrates. NANOLUC® luciferase was employed for the screening because it is a small (19 kDa), stable, and particularly bright enzyme. […] RLU, half-life, and Km values are for furimazine is set to 1.0. […]
As for `O=c1c(Cc2ccco2)nc2c(Cc3ccccc3)[nH]c(-c3ccccc3)cn1-2` [Furimazine, 8-benzyl-2-(furan-2-ylmethyl)-6-phenylimidazo[1,2-a]pyrazin-3(7H)-one, reference compound], the “RLU (@100 μM)” value is 1.

Regarding `O=c1c(Cc2cccs2)nc2c(Cc3ccccc3)[nH]c(-c3cccc(O)c3)cn1-2` [JRW-1040, 8-benzyl-6-(3-hydroxyphenyl)-2-(thiophen-2-ylmethyl)imidazo[1,2-a]pyrazin-3(7H)-one], the “RLU (@100 μM)” value came out at 0.8.

For the compound `O=c1c(Cc2ccco2)nc2c(Cc3ccccc3)[nH]c(-c3cc(O)cc(Cl)c3)cn1-2` [JRW-1479, 8-benzyl-6-(3-chloro-5-hydroxyphenyl)-2-(furan-2-ylmethyl)imidazo[1,2-a]pyrazin-3(7H)-one], the “RLU (@100 μM)” value was determined as 0.43.

In the case of `Nc1cccc(-c2cn3c(=O)c(Cc4ccco4)nc-3c(Cc3ccccc3)[nH]2)c1F` [JRW-1482, 6-(3-amino-2-fluorophenyl)-8-benzyl-2-(furan-2-ylmethyl)imidazo[1,2-a]pyrazin-3(7H)-one], the “RLU (@100 μM)” value came to 1.7.

On to `O=c1c(Cc2ccco2)nc2c(Cc3ccccc3)[nH]c(-c3ccc(Cl)c(O)c3)cn1-2` [JRW-1483, 8-benzyl-6-(4-chloro-3-hydroxyphenyl)-2-(furan-2-ylmethyl)imidazo[1,2-a]pyrazin-3(7H)-one], for which the “RLU (@100 μM)” value turned out to be 0.008.

As for `O=c1c(Cc2ccco2)nc2c(Cc3ccccc3)[nH]c(-c3cccc(O)c3Cl)cn1-2` [JRW-1488, 8-benzyl-6-(2-chloro-3-hydroxyphenyl)-2-(furan-2-ylmethyl)imidazo[1,2-a]pyrazin-3(7H)-one], the “RLU (@100 μM)” value amounted to 0.31.

Take `O=c1c(Cc2ccco2)nc2c(Cc3ccc(F)cc3)[nH]c(-c3cccc(O)c3)cn1-2` [JRW-1498, 8-(4-fluorobenzyl)-2-(furan-2-ylmethyl)-6-(3-hydroxyphenyl)imidazo[1,2-a]pyrazin-3(7H)-one]: the “RLU (@100 μM)” value is 0.049.

For the compound `O=c1c(Cc2ccco2)nc2c(Cc3ccccc3)[nH]c(-c3cc(O)ccc3Cl)cn1-2` [JRW-1525, 8-benzyl-6-(2-chloro-5-hydroxyphenyl)-2-(furan-2-ylmethyl)imidazo[1,2-a]pyrazin-3(7H)-one], the “RLU (@100 μM)” value amounted to 0.4.

In the case of `O=c1c(Cc2ccco2)nc2c(Cc3ccccc3)[nH]c(-c3cc(O)cc(F)c3)cn1-2` [JRW-1526, 8-benzyl-6-(3-fluoro-5-hydroxyphenyl)-2-(furan-2-ylmethyl)imidazo[1,2-a]pyrazin-3(7H)-one], the “RLU (@100 μM)” value was 1.0.

As for `Nc1cc(F)cc(-c2cn3c(=O)c(Cc4ccco4)nc-3c(Cc3ccccc3)[nH]2)c1` [JRW-1535, 6-(3-amino-5-fluorophenyl)-8-benzyl-2-(furan-2-ylmethyl)imidazo[1,2-a]pyrazin-3(7H)-one], the “RLU (@100 μM)” value is 0.73.

Take `Nc1cc(-c2cn3c(=O)c(Cc4ccco4)nc-3c(Cc3ccccc3)[nH]2)ccc1F` [JRW-1536, 6-(3-amino-4-fluorophenyl)-8-benzyl-2-(furan-2-ylmethyl)imidazo[1,2-a]pyrazin-3(7H)-one]: the “RLU (@100 μM)” value worked out at 0.08.

With `Nc1cccc(-c2cn3c(=O)c(Cc4ccc(C(F)(F)F)o4)nc-3c(Cc3ccccc3)[nH]2)c1F` [JRW-1610, 6-(3-amino-2-fluorophenyl)-8-benzyl-2-((5-(trifluoromethyl)furan-2-yl)methyl)imidazo[1,2-a]pyrazin-3(7H)-one], the “RLU (@100 μM)” value amounted to 0.71.

On to `O=c1c(Cc2ccc(C(F)(F)F)o2)nc2c(Cc3ccccc3)[nH]c(-c3cccc(O)c3F)cn1-2` [JRW-1619, 8-benzyl-6-(2-fluoro-3-hydroxyphenyl)-2-((5-(trifluoromethyl)furan-2-yl)methyl)imidazo[1,2-a]pyrazin-3(7H)-one], for which the “RLU (@100 μM)” value amounted to 0.85.

`O=c1c(Cc2cccs2)nc2c(Cc3ccccc3)[nH]c(-c3cccc(O)c3F)cn1-2` [JRW-1624, 8-benzyl-6-(2-fluoro-3-hydroxyphenyl)-2-(thiophen-2-ylmethyl)imidazo[1,2-a]pyrazin-3(7H)-one]: the “RLU (@100 μM)” value is listed as 0.84.

For the compound `Nc1cccc(-c2cn3c(=O)c(Cc4ccc(F)cc4)nc-3c(Cc3ccccc3)[nH]2)c1F` [JRW-1635, 6-(3-amino-2-fluorophenyl)-8-benzyl-2-(4-fluorobenzyl)imidazo[1,2-a]pyrazin-3(7H)-one], the “RLU (@100 μM)” value is recorded as 1.0.

Take `Cc1c(N)cccc1-c1cn2c(=O)c(Cc3ccco3)nc-2c(Cc2ccccc2)[nH]1` [JRW-1642, 6-(3-amino-2-methylphenyl)-8-benzyl-2-(furan-2-ylmethyl)imidazo[1,2-a]pyrazin-3(7H)-one]: the “RLU (@100 μM)” value is recorded as 0.04.

With `Cc1c(O)cccc1-c1cn2c(=O)c(Cc3ccco3)nc-2c(Cc2ccccc2)[nH]1` [JRW-1645, 8-benzyl-2-(furan-2-ylmethyl)-6-(3-hydroxy-2-methylphenyl)imidazo[1,2-a]pyrazin-3(7H)-one], the “RLU (@100 μM)” value amounted to 0.07.

Consider `Nc1cccc(-c2cn3c(=O)c(Cc4ccco4)nc-3c(Cc3ccccc3F)[nH]2)c1F` [JRW-1667, 6-(3-amino-2-fluorophenyl)-8-(2-fluorobenzyl)-2-(furan-2-ylmethyl)imidazo[1,2-a]pyrazin-3(7H)-one], for which the “RLU (@100 μM)” value was determined as 2.1.

Consider `O=c1c(Cc2ccco2)nc2c(Cc3ccccc3F)[nH]c(-c3cccc(O)c3F)cn1-2` [JRW-1668, 6-(2-fluoro-3-hydroxyphenyl)-8-(2-fluorobenzyl)-2-(furan-2-ylmethyl)imidazo[1,2-a]pyrazin-3(7H)-one], for which the “RLU (@100 μM)” value is listed as 1.5.

On to `Nc1cccc(-c2cn3c(=O)c(Cc4ccco4)nc-3c(Cc3c(F)cccc3F)[nH]2)c1F` [JRW-1747, 6-(3-amino-2-fluorophenyl)-8-(2,6-difluorobenzyl)-2-(furan-2-ylmethyl)imidazo[1,2-a]pyrazin-3(7H)-one], for which the “RLU (@100 μM)” value came out at 2.1.

Tested on in another series: not listed separately
As to the kind of experiment: Solubility testing in formulation, UV-Vis of supernatant vs 0.2 micron filtrate. It counts as physicochemical. The settings on record: 8.7 mM in ethanol/propylene glycol/hydroxypropyl-β-cyclodextrin/PEG 400/water (10:10:10:35:35); UV spectra of supernatant vs filtrate. As to the method:
This 5× stock solution was then added to a solution of hydroxypropyl-β-cyclodextrin/water/PEG400 to give a formulation mixture of 8.7 mM in ethanol/propylene glycol/hydroxypropyl-β-cyclodextrin/PEG 400/water (10:10:10:35:35). The mixture was vortexed and centrifuged. Supernatant was sampled and measured in a UV-Vis spectrometer. The mixture was filtered through a 0.2 micron syringe filter and the filtrate was measured and compared to the supernatant.
Shown in FIG. 1 are UV spectra of JRW-1040 in the formulation, comparing supernatant and filtrate. The two UV spectra are superimposed, showing JRW-1040 is fully soluble in the formulation. Shown in FIG. 2 is the same experiment with furimazine. […] This is an example showing improvements in solubility compared to furimazine.
Turning to `O=c1c(Cc2ccco2)nc2c(Cc3ccccc3)[nH]c(-c3ccccc3)cn1-2` [Furimazine, 8-benzyl-2-(furan-2-ylmethyl)-6-phenylimidazo[1,2-a]pyrazin-3(7H)-one, reference compound], the “Solubility in the formulation” value is listed as “not fully soluble”.

With `O=c1c(Cc2cccs2)nc2c(Cc3ccccc3)[nH]c(-c3cccc(O)c3)cn1-2` [JRW-1040, 8-benzyl-6-(3-hydroxyphenyl)-2-(thiophen-2-ylmethyl)imidazo[1,2-a]pyrazin-3(7H)-one], the “Solubility in the formulation” value is reported as “fully soluble”.
